Measured values as given in patent publication US5426113A, “Method of preventing ulcer formation caused by nonsteroidal antiinflammatory drugs employing tetrazol-benzothiophene carboxamide compounds” (Warner-Lambert Company, priority 1994, dated 1995).
“Also recorded” adds a separate entry of the source. Where two headings read alike, the source gives them in different places.

Assays:
[1] = system: aspirin-induced gastric damage; assay: Aspirin-induced gastric damage model (aspirin erosion model); type: in vivo; settings: Rattus norvegicus, 0.5 h
Procedure: (§1) Fifteen minutes later, the animals were orally challenged with a single dose of 20 mg/kg indomethacin or 288 mg/kg aspirin. The animals were euthanized either at 4 hours (indomethacin) or 30 minutes (aspirin) later and the amount of gastric damage was assessed using image analysis.
Additional compounds of Formula I were tested in both the MAC-1 and the aspirin-induced gastric damage model (Table 1 and FIG. 4). Compounds which were active in the MAC-1 assay were also active in the gastric cytoprotective assay.

[2] = system: stimulated acid secretion; assay: Dimaprit-stimulated gastric fistula beagle dog model; type: in vivo
From the text: All parameters of gastric secretion appeared to be practically identical to those observed in the vehicle-only controls.

MAC-1 [3] = target: T1, MAC-1 (Homo sapiens, UniProt P05107+P11215); assay: Inhibition of MAC-1 mediated adhesion of FMLP-stimulated neutrophils to KLH-coated plastic; type: cell-based; settings: 1 h, read-out: increase of MAC-1 dependent adherence to KLH-coated plastic
T1 construct: endogenous in cells

basal acid secretion = assay: Shay rat model of basal acid secretion; type: in vivo; settings: 50 or 200 mg/kg PO; pylorus ligated 1 hour later, acid content 4 hours later
Procedure: This has been tested in two different animal models. In the rat, Example 1 was tested in the Shay rat model of basal acid secretion. […] One hour later the animals were anesthetized and the pyloric sphincter to the stomach was ligated. The stomachs were removed 4 hours later and their acid content determined.

[4] = system: NSAID-induced gastric damage; assay: Gastric cytoprotection in animal models (NSAID-induced gastric damage); type: in vivo; settings: Rattus norvegicus, po; range over models
Procedure: as §1

[5] = system: human basophil histamine release; assay: Human basophil histamine release stimulated with anti-IgE; type: cell-based
[6] = system: NSAID-induced gastric damage; settings: indomethacin and aspirin in rats; Low J. E., et al., 1993; cited from earlier work
Plasma protein binding = type: in vitro ADME; settings: rat, dog, sheep, and human
[7] = system: human colonic adenocarcinoma (CaCO-2) cells
Procedure: [^14 C]Example 1 (22.9 μg/mL) was loaded on to either the apical (luminal) or basolateral (vascular) of the monolayer. Samples were obtained over 250 minutes from either side of the chamber in each experiment.

[8] = system: gastrointestinal tissues (stomach, small and large intestines); assay: Whole body autoradiography after intravenous radiolabeled Example 1; type: in vivo
[9] = system: animal disease models (asthma, allergy, arthritis, adult respiratory distress syndrome (ARDS), and cardiac reperfusion); assay: Animal disease models (asthma, allergy, arthritis, ARDS, cardiac reperfusion); type: in vivo
[10] = system: leukocyte adhesion in the animal's mesenteric post-capillary venules; assay: NSAID (indomethacin)-induced leukocyte adhesion in rat mesenteric post-capillary venules, intravital microscopy; type: in vivo; settings: indomethacin 10 minutes later
From the text: In these studies, oral treatment of rats with the NSAID indomethacin results in leukocyte adhesion in the animal's mesenteric post-capillary venules. This can be observed and measured using the technique of Intravital microscopy.

[11] = system: indomethacin-induced gastric damage; assay: Indomethacin-induced gastric damage model; type: in vivo; settings: Rattus norvegicus; oral, 15 minutes before 20 mg/kg indomethacin PO; assessed at 4 hours; read-out: ED50 cytoprotection, indomethacin
Procedure: as §1

MAC-1 [12] = target: T1, MAC-1; settings: Wright C. D., et al., Keystone symposium 1994; cited from earlier work
[13] = po, Table 1, aspirin-induced gastric damage model, read-out: Gastric Cytoprotective Effect (ED50, mg/kg PO)

T1 sequence (P05107 23-769, other chains not shown): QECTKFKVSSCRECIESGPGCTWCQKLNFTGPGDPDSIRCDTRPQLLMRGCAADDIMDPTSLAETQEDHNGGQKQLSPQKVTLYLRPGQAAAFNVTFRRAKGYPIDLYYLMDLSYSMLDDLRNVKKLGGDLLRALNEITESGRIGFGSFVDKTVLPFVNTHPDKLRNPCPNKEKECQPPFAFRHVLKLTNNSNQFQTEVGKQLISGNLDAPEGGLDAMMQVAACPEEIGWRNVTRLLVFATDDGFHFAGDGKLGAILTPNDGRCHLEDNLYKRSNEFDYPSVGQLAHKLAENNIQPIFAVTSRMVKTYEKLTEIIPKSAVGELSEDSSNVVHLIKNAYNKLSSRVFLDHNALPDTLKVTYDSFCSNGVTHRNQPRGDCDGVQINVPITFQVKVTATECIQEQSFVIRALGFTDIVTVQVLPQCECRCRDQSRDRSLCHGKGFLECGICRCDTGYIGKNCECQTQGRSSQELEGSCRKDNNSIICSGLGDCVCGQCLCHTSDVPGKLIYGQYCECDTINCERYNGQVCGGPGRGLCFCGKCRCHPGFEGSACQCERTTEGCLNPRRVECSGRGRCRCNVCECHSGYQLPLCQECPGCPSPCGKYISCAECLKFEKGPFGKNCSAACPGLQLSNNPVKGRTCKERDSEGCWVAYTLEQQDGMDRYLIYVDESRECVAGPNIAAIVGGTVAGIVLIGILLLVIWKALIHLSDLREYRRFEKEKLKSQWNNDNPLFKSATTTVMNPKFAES

In the case of `COc1cc2sc(C(=O)Nc3nnn[nH]3)c(OC(C)C)c2cc1OC` [Example 3, 5,6-Dimethoxy-3-(1-methylethoxy)-N-1H-tetrazol5-yl-benzo[b]thiophene-2-carboxamide], the ED50 [1, 13] is reported as 1 mg/kg.

For `CN(C)CCCSC(=N)N` [dimaprit], the “gastric secretion pH” value ([2]; constant intravenous 0.2 mg/kg hr) was 1.0.

For `CNC(=C[N+](=O)[O-])NCCSCc1ccc(CN(C)C)o1` [ranitidine], the “increase in gastric pH” value ([2]; 1.5 mg/kg PO, dimaprit 0.2 mg/kg hr IV) was 4 units.

In the case of `COc1ccc2c(OC(C)C)c(C(=O)Nc3nnn[nH]3)sc2c1` [Example 2, 6-Methoxy-3-(1-methylethoxy)-N-1H-tetrazol-5-yl-benzo[b]thiophene-2-carboxamide], the ED50 [1, 13] is reported as 1 mg/kg.

Compound `CSCC[C@H](NC=O)C(=O)N[C@@H](CC(C)C)C(=O)N[C@@H](Cc1ccccc1)C(=O)O` [N-formyl-methionyl-leucyl-phenylalanine] has an activation at 0.01 µM (MAC-1 [3]) of 49%.

`COc1cc2sc(C(=O)Nc3nnn[nH]3)c(Oc3ccccc3)c2cc1OC` [Example 4, 5,6-Dimethoxy-3-phenoxy-N-1H-tetrazol-5-yl-benzo[b]thiophene-2-carboxamide] showed an ED50 [1, 13] of 0.01 mg/kg.

In the case of `COc1ccc2sc(C(=O)Nc3nnn[nH]3)c(OC(C)C)c2c1` [Example 1, 5-Methoxy-3-(1-methylethoxy)-N-1H-tetrazol-5-yl-benzo[b]thiophene-2-carboxamide], the “effect on basal acid secretion” value (basal acid secretion) is reported as “no effect”, the ED50 [4] is reported as 0.01 to 1 mg/kg and the IC50 ([5]; Homo sapiens, anti-IgE stimulated, absence of serum) is reported as 300 nM. For the same compound, the “inhibitory effect on human basophil histamine release in the presence of serum” value ([5]; increasing concentration of serum (5-50%)) was “significantly reduced”, the “gastric cytoprotective effects against damage caused by NSAIDs” value [6] was “gastric cytoprotective effects” and the fraction unbound (Plasma protein binding) was 0.01 to 0.02. The “amount on apical side compared to basolateral side” value [7] was “significantly more”, the “time to radiolabeled material associated with gastrointestinal tissues” value ([8]; rapid) was 5 min and the “levels of radiolabeled material associated with gastrointestinal tissues” value ([8]; stomach, small and large intestines) was “high levels”. The ED50 ([9]; IV) was 5 to 20 mg/kg, the ED50 ([9]; oral) was 30 to 100 mg/kg and the ED50 ([1]; oral, 15 minutes before 288 mg/kg aspirin PO, assessed at 30 minutes, read-out: ED50 cytoprotection, aspirin) was 0.01 mg/kg. The “inhibition of indomethacin-induced leukocyte adhesion” value ([10]; 1 mg/kg PO, 40 and 70 minute time point) was “no protective effects”, the “inhibition of indomethacin-induced leukocyte adhesion” value ([10]; 5 or 10 mg/kg PO) was “complete inhibition” and the “changes in gastric secretion” value ([2]; 0.1, 1.0, or 10 mg/kg PO, dimaprit-stimulated) was “no significant changes”. The ED50 [11] was 1 mg/kg and the “inhibition of neutrophil adhesion mediated by MAC-1” value (MAC-1 [12]) was “can inhibit neutrophil adhesion; also recorded: inhibits neutrophil adhesion”.
